The values below come from patent US10508085B2, “Compounds and methods for IDO and TDO modulation, and indications therefor” (Plexxikon Inc., priority 2016, dated 2019).

A value given as a limit tells only on which side of the number the result lay.

By IC50 is commonly meant the concentration at which inhibition is half-maximal.

Test [1] has as its target T1, Human Indoleamine 2,3-dioxygenase (IDO) (Homo sapiens, UniProt P14902).
T1 construct: His tag (N); made in house; host or cells: E. coli
The test is described as follows: Human IDO enzymatic assay (kynurenine level). The conditions noted are these: 6 nM IDO, 10 μM L-Trp; geometric mean; read-out: IDO1 GMean: IC50 (μM) (Biochemical Assay). In kind it is biochemical. How it is done: (§1) Human Indoleamine 2,3-dioxygenase (IDO) and Tryptophan 2,3-dioxygenase (TDO) enzymatic assay
(§2) Human IDO or TDO with N-terminal His tag is purified in E. coli. The IDO enzymatic assay is performed using 6 nM IDO and 10 μM L-Trp in the presence of 10 mM ascorbic acid, 5 μM methylene blue, 100 nM catalase and 0.01% Tween 20 in 50 mM sodium phosphate buffer (pH 6.5). 19 μL of above reaction mixture is added to wells of 384 well reaction plate containing […] of various concentrations of test compound or DMSO vehicle and incubated for 20 minutes at room temperature. The TDO enzymatic reaction assay is performed using 1 nM TDO and 350 μM L-Trp in the presence of 10 mM ascorbic acid, 0.4 μM methylene blue, 100 nM catalase and 0.01% Tween 20 in 50 mM sodium phosphate buffer (pH 6.5). 19 μL of above reaction mixture is added to wells of 384 well reaction plate containing 1 μL of various concentrations of test compound or DMSO vehicle and incubated for 70 minutes at room temperature. 16 wells containing all the components of reaction mixture and 5% DMSO serve as high control. 16 well containing all the components except enzyme of reaction mixture and 5% DMSO serves as low control. Both IDO and TDO enzymatic reactions are stopped by addition of […] of 30% TCA and incubated 30 minutes at 50° C. to hydrolyze N-formylkynurenine produced by IDO or TDO to kynurenine. Upon measuring the kynurenine level, the percentage inhibition is calculated at individual concentrations relative to high and low controls. The data is analyzed by using nonlinear regression to generate IC50 values.

Test [2] deals with T2, Human Tryptophan 2,3-dioxygenase (TDO) (Homo sapiens, UniProt P48775).
T2 construct: His tag (N); made in house; host or cells: E. coli
The experiment in a line: Human TDO enzymatic assay (kynurenine level). In kind it is biochemical. As to conditions: 1 nM TDO, 350 μM L-Trp; geometric mean; read-out: TDO GMean: IC50 (μM) (Biochemical Assay). The method, then:
as §1, §2

T1 sequence (P14902 whole entry): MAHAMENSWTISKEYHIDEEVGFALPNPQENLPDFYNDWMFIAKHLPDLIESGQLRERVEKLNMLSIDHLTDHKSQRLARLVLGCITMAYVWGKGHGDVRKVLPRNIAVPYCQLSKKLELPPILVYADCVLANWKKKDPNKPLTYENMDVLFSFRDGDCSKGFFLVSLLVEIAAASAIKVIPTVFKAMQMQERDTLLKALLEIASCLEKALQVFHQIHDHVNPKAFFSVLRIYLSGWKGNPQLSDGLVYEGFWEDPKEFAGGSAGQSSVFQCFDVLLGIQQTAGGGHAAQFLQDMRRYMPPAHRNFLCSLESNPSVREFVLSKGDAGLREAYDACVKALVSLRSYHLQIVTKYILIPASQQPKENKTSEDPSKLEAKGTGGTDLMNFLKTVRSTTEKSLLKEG
T2 sequence (P48775 whole entry): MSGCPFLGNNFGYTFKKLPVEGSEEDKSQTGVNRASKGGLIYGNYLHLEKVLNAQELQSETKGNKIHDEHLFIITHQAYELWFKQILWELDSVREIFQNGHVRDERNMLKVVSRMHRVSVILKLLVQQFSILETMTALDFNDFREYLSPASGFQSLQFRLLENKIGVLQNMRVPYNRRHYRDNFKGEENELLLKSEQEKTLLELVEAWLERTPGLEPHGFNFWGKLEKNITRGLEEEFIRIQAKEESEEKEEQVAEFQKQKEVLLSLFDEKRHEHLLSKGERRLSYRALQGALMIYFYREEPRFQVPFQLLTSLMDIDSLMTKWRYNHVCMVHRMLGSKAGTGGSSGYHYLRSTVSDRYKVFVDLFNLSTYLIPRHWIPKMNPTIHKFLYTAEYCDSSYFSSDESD

Take `OC(c1ccc(Cl)c2cn[nH]c12)C1CCCCC1` (stereo not drawn) [Compound P-0003, (4-chloro-1H-indazol-7-yl)(cyclohexyl)methanol]: the IC50 in test [1] and in test [2] was 0.0001 to 10 µM throughout. For `CCCOc1ccc(C(O)c2cccc3cncn23)cc1` (stereo not drawn) [Compound P-0064, imidazo[1,5-a]pyridin-5-yl(4-propoxyphenyl)methanol], the IC50 was 0.0001 to 10 µM in test [1] and 10 to 100 µM in test [2].

In the case of `OC(c1ccc(OC(F)(F)F)cc1)c1cccc2cncn12` (stereo not drawn) [Compound P-0065, imidazo[1,5-a]pyridin-5-yl(4-(trifluoromethoxy)phenyl)methanol], the IC50 in test [1] is 0.0001 to 10 µM; in test [2], 10 to 100 µM. For `OC(c1ccccc1F)c1cccc2cncn12` (stereo not drawn) [Compound P-0066, (2-fluorophenyl)(imidazo[1,5-a]pyridin-5-yl)methanol] the same measures were 0.0001 to 10 µM and 0.0001 to 10 µM. For `OC(c1ccccc1C(F)(F)F)c1cccc2cncn12` (stereo not drawn) [Compound P-0067, imidazo[1,5-a]pyridin-5-yl(2-(trifluoromethyl)phenyl)methanol] the same measures were 100 to 200 µM and 0.0001 to 10 µM. For `OC(c1cccc(F)c1)c1cccc2cncn12` (stereo not drawn) [Compound P-0068, (3-fluorophenyl)(imidazo[1,5-a]pyridin-5-yl)methanol] the same measures were 0.0001 to 10 µM and 0.0001 to 10 µM. In the case of `OC(c1cccc(N2CCOCC2)c1)c1cccc2cncn12` (stereo not drawn) [Compound P-0069, imidazo[1,5-a]pyridin-5-yl(3-morpholinophenyl)methanol], the IC50 in test [1] and in test [2] was 10 to 100 µM in each case. In the case of `OC(c1cccc(-n2ccnc2)c1)c1cccc2cncn12` (stereo not drawn) [Compound P-0070, (3-(1H-imidazol-1-yl)phenyl)(imidazo[1,5-a]pyridin-5-yl)methanol], the IC50 in test [1] and in test [2] was 100 to 200 µM in each case. With `OC(c1cccc(OCc2ccccc2)c1)c1cccc2cncn12` (stereo not drawn) [Compound P-0071], the IC50 was in the range of 0.0001 to 10 µM in test [1] and 10 to 100 µM in test [2].

In the case of `CN(C)c1cccc(C(O)c2cccc3cncn23)c1` (stereo not drawn) [Compound P-0072, (3-(dimethylamino)phenyl)(imidazo[1,5-a]pyridin-5-yl)methanol], the IC50 in test [1] and in test [2] was 10 to 100 µM in each case.

Take `OC(c1cccc(N2CCCCC2)c1)c1cccc2cncn12` (stereo not drawn) [Compound P-0073, imidazo[1,5-a]pyridin-5-yl(3-(piperidin-1-yl)phenyl)methanol]: the IC50 in test [1] fell in the range of 0.0001 to 10 µM; in test [2], 10 to 100 µM. For `OC(c1cccc2cncn12)C1CCOCC1` (stereo not drawn) [Compound P-0075, imidazo[1,5-a]pyridin-5-yl(tetrahydro-2H-pyran-4-yl)methanol] the same measures were 0.0001 to 10 µM and 0.0001 to 10 µM. For `OC(c1ccccc1Cl)c1cccc2cncn12` (stereo not drawn) [Compound P-0077, (2-chlorophenyl)(imidazo[1,5-a]pyridin-5-yl)methanol] the same measures were over 200 µM and 10 to 100 µM. Taken in the same sequence, the figures for `OC(c1cccc(C(F)(F)F)c1)c1cccc2cncn12` (stereo not drawn) [Compound P-0078, imidazo[1,5-a]pyridin-5-yl(3-(trifluoromethyl)phenyl)methanol] were 0.0001 to 10 µM and 10 to 100 µM. As for `CC(C)(C1CCN(C(=O)CN2CCS(=O)(=O)CC2)CC1)[C@H](O)c1cc(Cl)cc2cn[nH]c12` [Compound P-0500, (S)-1-(4-(1-(5-chloro-1H-indazol-7-yl)-1-hydroxy-2-methylpropan-2-yl)piperidin-1-yl)-2-(1,1-dioxidothiomorpholino) ethan-1-one], in test [1], the IC50 was 0.0001 to 10 µM. In the case of `O=C(Cc1ccc(Cl)c(F)c1)N1CCC(C(F)(F)[C@H](O)c2cc(Cl)cc3cn[nH]c23)CC1` [Compound P-0571, (R)-1-(4-(2-(5-chloro-1H-indazol-7-yl)-1,1-difluoro-2-hydroxyethyl)piperidin-1-yl)-2-(4-chloro-3-fluorophenyl)ethan-1-one], the IC50 in test [1] and in test [2] was 0.0001 to 10 µM each time. As for `O=C(Cc1ccc(F)c(Cl)c1)N1CCC(C(F)(F)[C@H](O)c2cc(Cl)cc3cn[nH]c23)CC1` [Compound P-0572, (R)-1-(4-(2-(5-chloro-1H-indazol-7-yl)-1,1-difluoro-2-hydroxyethyl)piperidin-1-yl)-2-(3-chloro-4-fluorophenyl)ethan-1-one], the IC50 in test [1] and in test [2] was 0.0001 to 10 µM throughout.

For `CC(C)(C1CCN(/C(N)=N/C#N)CC1)C(O)c1cc(Cl)cc2cn[nH]c12` (stereo not drawn) [Compound P-0573, (E)-4-(1-(5-chloro-1H-indazol-7-yl)-1-hydroxy-2-methylpropan-2-yl)-N′-cyanopiperidine-1-carboximidamide], the IC50 in test [1] and in test [2] was 0.0001 to 10 µM throughout. Consider `CCC(=O)N1CCC(C(F)(F)[C@H](O)c2cc(Cl)cc3cn[nH]c23)CC1` [Compound P-0574, (R)-1-(4-(2-(5-chloro-1H-indazol-7-yl)-1,1-difluoro-2-hydroxyethyl)piperidin-1-yl)propan-1-one], for which the IC50 in test [1] and in test [2] was 0.0001 to 10 µM in each case. Regarding `CNC(=O)N1CCC(C(F)(F)[C@H](O)c2cc(Cl)cc3cn[nH]c23)CC1` [Compound P-0575, (R)-4-(2-(5-chloro-1H-indazol-7-yl)-1,1-difluoro-2-hydroxyethyl)-N-methylpiperidine-1-carboxamide], the IC50 in test [1] and in test [2] was 0.0001 to 10 µM throughout. As for `O=C(Cc1ccnc(Cl)c1)N1CCC(C(F)(F)[C@H](O)c2cc(Cl)cc3cn[nH]c23)CC1` [Compound P-0576, (R)-1-(4-(2-(5-chloro-1H-indazol-7-yl)-1,1-difluoro-2-hydroxyethyl)piperidin-1-yl)-2-(2-chloropyridin-4-yl)ethan-1-one], the IC50 in test [1] and in test [2] was 0.0001 to 10 µM each time.

Consider `CCC(=O)N1CCC(C(F)(F)C(O)c2cc(Cl)cc3[nH]ncc23)CC1` (stereo not drawn) [Compound P-0577, 1-(4-(2-(6-chloro-1H-indazol-4-yl)-1,1-difluoro-2-hydroxyethyl)piperidin-1-yl) propan-1-one], for which the IC50 in test [1] and in test [2] was 0.0001 to 10 µM each time. Turning to `CNC(=O)N1CCC(C(F)(F)C(O)c2cc(Cl)cc3[nH]ncc23)CC1` (stereo not drawn) [Compound P-0578, 4-(2-(6-chloro-1H-indazol-4-yl)-1,1-difluoro-2-hydroxyethyl)-N-methylpiperidine-1-carboxamide], the IC50 in test [1] and in test [2] was 0.0001 to 10 µM in each case. For `CC(C)(C1CCN(C(=O)NCS(C)(=O)=O)CC1)[C@H](O)c1cc(Cl)cc2cn[nH]c12` [Compound P-0579, (S)-4-(1-(5-chloro-1H-indazol-7-yl)-1-hydroxy-2-methylpropan-2-yl)-N-((methylsulfony)methyl)piperidine-1-carboxamide], the IC50 in test [1] and in test [2] was 0.0001 to 10 µM throughout.

As for `CC(C)(C1CCN(C(=O)NCCF)CC1)[C@H](O)c1cc(Cl)cc2cn[nH]c12` [Compound P-0580, (S)-4-(1-(5-chloro-1H-indazol-7-yl)-1-hydroxy-2-methylpropan-2-yl)-N-(2-fluoroethyl) piperidine-1-carboxamide], the IC50 in test [1] and in test [2] was 0.0001 to 10 µM each time. In the case of `CC(C)(C1CCN(C(=O)NCC(F)F)CC1)[C@H](O)c1cc(Cl)cc2cn[nH]c12` [Compound P-0581, (S)-4-(1-(5-chloro-1H-indazol-7-yl)-1-hydroxy-2-methylpropan-2-yl)-N-(2,2-difluoroethyl) piperidine-1-carboxamide], the IC50 in test [1] and in test [2] was 0.0001 to 10 µM throughout. For `CC(C)(C1CCN(C(=O)NCC2CCC2)CC1)[C@H](O)c1cc(Cl)cc2cn[nH]c12` [Compound P-0582, (S)-4-(1-(5-chloro-1H-indazol-7-yl)-1-hydroxy-2-methylpropan-2-yl)-N-(cyclobutylmethyl) piperidine-1-carboxamide], the IC50 in test [1] and in test [2] was 0.0001 to 10 µM in each case. Consider `CNC(=O)CNC(=O)N1CCC(C(C)(C)[C@H](O)c2cc(Cl)cc3cn[nH]c23)CC1` [Compound P-0583, (S)-4-(1-(5-chloro-1H-indazol-7-yl)-1-hydroxy-2-methylpropan-2-yl)-N-(2-(methylamino)-2-oxoethyl)piperidine-1-carboxamide], for which the half-maximal inhibitory concentration (IC50) in test [1] and in test [2] was 0.0001 to 10 µM in each case. On to `CC(C)(C1CCN(C(=O)NCc2ccc(C#N)cc2)CC1)[C@H](O)c1cc(Cl)cc2cn[nH]c12` [Compound P-0584, (S)-4-(1-(5-chloro-1H-indazol-7-yl)-1-hydroxy-2-methylpropan-2-yl)-N-(4-cyanobenzyl) piperidine-1-carboxamide], for which the IC50 in test [1] and in test [2] was 0.0001 to 10 µM each time.
